# According to patent US20210008069A1, “THERAPEUTIC AGENT FOR INFLAMMATORY BOWEL DISEASE” (DAIICHI SANKYO COMPANY, LIMITED, priority 2018, published 2021):
# Test system: DSS-induced colitis model
# Test: Efficacy in model of dextran sulfate sodium-induced colitis
# Assay type: in vivo, C57BL/6J mice
# Experimental: A colitis model was prepared by allowing 7-week-old male C57BL/6J mice to freely drink a 1.5% aqueous solution of dextran sulfate sodium (hereinafter, DSS) dissolved in pure water purified through a Milli-Q (registered trademark, Merck Millipore) filter (hereinafter, referred to as Milli-Q water). For the control group, only Milli-Q water was administered. Simultaneously with the start of administration of DSS in drinking water, feed prepared by mixing Compound A (0.01%, 0.03%) with powdered FR-2 was administered to the feed administered group. For the vehicle group with feeding, and the control group, to which no DSS was administered, only powdered FR-2 was administered. The day on which the administration of DSS in drinking water and the administration of the compound were started was designated as Day 1, and the administration was continued until Day 8.
# Control group: Milli-Q water, FR-2 (N=10) Vehicle group: 1.5% DSS solution, FR-2 (N=10) Compound A 0.01% group: 1.5% DSS solution, FR-2 mixed with 0.01% Compound A (N=10) Compound A 0.03% group: 1.5% DSS solution, FR-2 mixed with 0.03% Compound A (N=10)
# All animals were weighed in the morning from Day 1 to Day 8. On Day 8, the abdomen was opened under isoflurane anesthesia, blood was collected from the abdominal vein by an untreated syringe, the duodenum, large intestine, rectum, and anus were removed, and the length of the removed large intestine was measured with an electric caliper. The large intestine was cut open to observe the stool properties and score the degree of diarrhea.
# [1] = 0.03% Compound A in feed, Day 1 to Day 8, 1.5% DSS in drinking water, compared with negative control
smiles,measurement,setting,value
"Cc1nc(CC2CCN(c3ccc(-c4ccc(C[C@H](C)O)cc4)cc3)CC2)nc(C(=O)NCC(=O)O)c1O [Compound A, [({5-hydroxy-2-[(1-{4′-[(2S)-2-hydroxypropyl]biphenyl-4-yl}piperidin-4-yl)methyl]-6-methylpyrimidin-4-yl}carbonyl)amino]acetic acid]",Inhibitory effect on intestinal length shortening (intestinal tract length on Day 8),[1],significant inhibitory effect on intestinal length shortening
same,Inhibitory effect on weight loss (amount of change in body weight on Day 8),[1],significant inhibitory effect on weight loss
same,Diarrhea score on Day 8 (stool properties),"compound-administered group (0.01%, 0.03% in feed), 1.5% DSS, score 0-3 per Table 1, compared with negative control",tended to have improved stool properties
same,Effect on the clinical condition in DSS-induced colitis model,"overall conclusion, mice, administration in feed Day 1 to Day 8",improving effect on the clinical condition
